Data taken from ChEMBL document CHEMBL1146110, “QSAR study on topically acting sulfonamides incorporating GABA moieties: a molecular connectivity approach” (Bioorg Med Chem Lett, 2006).

Columns and labels:
Carbonic anhydrase 1 = Carbonic anhydrase 1 (Homo sapiens, UniProt P00915)
Carbonic anhydrase 4 = target: T1, Carbonic anhydrase 4 (Bos taurus, UniProt Q95323)
T1 sequence (Q95323 whole entry): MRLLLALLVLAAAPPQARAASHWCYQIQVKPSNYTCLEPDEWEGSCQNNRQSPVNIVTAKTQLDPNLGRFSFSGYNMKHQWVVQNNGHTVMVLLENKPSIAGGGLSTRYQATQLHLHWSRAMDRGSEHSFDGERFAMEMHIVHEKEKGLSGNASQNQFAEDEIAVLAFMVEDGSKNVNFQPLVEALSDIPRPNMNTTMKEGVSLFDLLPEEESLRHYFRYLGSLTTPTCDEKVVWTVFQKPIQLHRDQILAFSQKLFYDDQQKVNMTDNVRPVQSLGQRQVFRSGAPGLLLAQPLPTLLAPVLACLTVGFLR

Carbonic anhydrase 1, sequence (P00915 whole entry): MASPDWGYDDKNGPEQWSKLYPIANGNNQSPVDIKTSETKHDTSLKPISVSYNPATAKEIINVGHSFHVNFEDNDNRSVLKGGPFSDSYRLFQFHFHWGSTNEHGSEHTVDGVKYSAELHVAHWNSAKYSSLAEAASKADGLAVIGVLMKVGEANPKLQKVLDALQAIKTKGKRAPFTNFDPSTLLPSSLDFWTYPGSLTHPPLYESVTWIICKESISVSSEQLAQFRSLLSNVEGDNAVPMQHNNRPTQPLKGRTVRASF

Structure (SMILES)	Ki (Carbonic anhydrase 1) [nM]	Ki (Carbonic anhydrase 4) [nM]
NCCCC(=O)Nc1cc(Cl)c(S(N)(=O)=O)cc1S(N)(=O)=O	350	50
Cn1nc(S(N)(=O)=O)s/c1=N/S(=O)(=O)c1ccc(N)cc1	9	8
NCCCC(=O)Nc1c(S(N)(=O)=O)cc(S(N)(=O)=O)c(Cl)c1Cl	450	50
NCCCC(=O)Nc1ccc(S(=O)(=O)Nc2ccc(S(N)(=O)=O)cc2)cc1	63	75
NCCCC(=O)Nc1cccc(S(N)(=O)=O)c1	17200	215
NCCCC(=O)Nc1ccccc1S(N)(=O)=O	20000	243
NCCCC(=O)Nc1ccc2nc(S(N)(=O)=O)sc2c1	14	12
NCCCC(=O)Nc1ccc(S(N)(=O)=O)cc1Cl	560	63
NCCCC(=O)NCc1ccc(S(N)(=O)=O)cc1		69
NS(=O)(=O)c1ccc(CCO)cc1		5
NCCCC(=O)Nc1ccc(S(N)(=O)=O)cc1Br	520	60
NCCCC(=O)OCc1ccc(S(N)(=O)=O)cc1	1750	180
NCCCC(=O)Oc1ccc2nc(S(N)(=O)=O)sc2c1	15	12
NCCCC(=O)NNc1ccc(S(N)(=O)=O)cc1	22500	305
NCCCC(=O)Nc1nnc(S(N)(=O)=O)s1	300	43
CCN(C(=O)CCCN)C1CC(C)S(=O)(=O)c2sc(S(N)(=O)=O)cc21 (stereo not drawn)	56	32
NCCCC(=O)Nc1ccc(S(N)(=O)=O)cc1I	500	56
NCCCC(=O)NCCC(=O)Nc1nnc(S(N)(=O)=O)s1	24	15
NCCCC(=O)Nc1ccc(S(N)(=O)=O)cc1F	530	38
NCCCC(=O)Nc1ccc(S(N)(=O)=O)cc1	15200	164
Cn1nc(S(N)(=O)=O)s/c1=N/S(=O)(=O)c1ccc(NC(=O)CCCN)cc1	15	
NCCCC(=O)Nc1nccc(Nc2ccc(S(N)(=O)=O)cc2)n1	51	50
Cn1nc(S(N)(=O)=O)s/c1=N\C(=O)CCCN	310	42
NCCCC(=O)OCCOc1ccc2nc(S(N)(=O)=O)sc2c1	10	11
NCCCC(=O)Nc1ccc(S(=O)(=O)Nc2cccc(S(N)(=O)=O)c2)cc1	61	67
NCCCC(=O)NCCc1ccc(S(N)(=O)=O)cc1		62
